The values below come from PubChem BioAssay (NCI).

Assay in all cases: NCI-60 cell line screen, 48 h
The subject of assay [1] is COLO 205 colon.
Assay [2] relates to NCI-H460 lung.
The test system of assay [3] is CAKI-1 renal.
Assay [4] concerns SK-MEL-2 melanoma.
In assay [5] the test system is IGROV1 ovarian.
Assay [6] deals with OVCAR-8 ovarian.
In assay [7] the test system is SN12C renal.
Assay [8] concerns HOP-92 NSCLC.
The test system of assay [9] is MALME-3M melanoma.
The test system of assay [10] is TK-10 renal.

Structures are written as SMILES. Where “and” joins values, the source holds several entries; their conditions need not be identical. Equal entries are not always repeated.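 Five compound concentrations were applied to cells in 96-well plates for 48 hours; endpoints were derived by simple linear interpolation of the resulting dose-response curve. GI50 marks 50% less growth. TGI is the concentration that stops growth completely.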

For the molecule `CC1(C)CC[C@]2(C(=O)O)CC[C@]3(C)[C@H](CC[C@@H]4[C@@]5(C)CCC(=O)C(C)(C)[C@@H]5CC[C@]43C)[C@H]2[C@H]1OC(=O)C(F)(F)F`, the GI50 in assay [1] was 6.58 µM; in assay [2] it was 7.65 µM; in [3], 12.8 µM; in assay [4] it was 14.1 µM; in [5] it was 18.9 µM; in assay [6], 12.9 µM. In addition, the GI50 in [7] is 11.5 µM; in assay [8] it was 8.08 µM; in [9], 12.9 µM; in assay [10], 16.9 µM. Moreover, the TGI in [1] was 23.6 µM; in [2] it was 29.7 µM; in [3], 25.7 µM; in [4], 30.9 µM; in [5] it was 40.5 µM; in [6] it was 30.1 µM. In addition, the TGI in assay [7] came to 24.8 µM; in assay [8], 22.6 µM; in assay [9], 30.7 µM; in [10], 31.8 µM.

On to `O=C(O/N=C1/CCCC/C1=C\c1ccccc1)c1ccc(Cl)cc1`, for which the TGI in [1], in [2], in [3], in [4], in [5] and in assay [6] was over 100 µM each time. For the same molecule, the TGI in assay [7], in [8], in assay [9] and in [10] was over 100 µM each time.

As for `COc1ccc(C(=O)N/N=C/c2ccc(O)cc2O)cc1Nc1ccnc(C(F)(F)F)c1`, the GI50 was 0.323 µM in [1]; 3.14 µM in [2]; 0.984 µM in assay [3]; 9.23 µM in assay [4]; 0.575 µM in assay [5]; 0.919 µM in assay [6]. For the same molecule, the GI50 in assay [7] is 1.15 µM; in [8] it was 0.347 µM; in assay [9], 0.891 µM; in assay [10] it was 0.994 µM. Besides, the TGI in assay [1] is 14.3 µM; in assay [2] it was 12.7 µM; in assay [3] it was 15.2 µM; in assay [4] it was 30.6 µM; in assay [5] it was 23.4 µM; in [6], over 71.2 µM. Further, the TGI in assay [7] is over 47 µM; in [8] it was 8.43 µM; in assay [9], over 26.7 µM; in assay [10], 58.6 µM.

On to `C[C@@]12CCC[C@@](C)(C(=O)O)C1CC[C@@]13CC(=O)[C@@](CO)(CCC12)C3` (stereo partly drawn), for which the GI50 in [1], in assay [2], in assay [3], in assay [4], in assay [5] and in [6] was over 100 µM throughout. In addition, the GI50 in [7], in assay [8], in [9] and in assay [10] was over 100 µM throughout. Also, the TGI in [1], in assay [2], in assay [3], in assay [4], in [5] and in assay [6] was over 100 µM each time. Besides, the TGI in assay [7], in [8], in [9] and in assay [10] was over 100 µM throughout.

With `C=C1CO[C@@H]2C[C@@H]1CCC1(C)OC1CC/C(C)=C/CC[C@@]2(C)O` (stereo partly drawn), the GI50 is 34.4 µM in assay [1]; 13.9 µM in assay [2]; 20 µM in assay [3]; 43.2 µM in assay [4]; 16.3 µM in [5]; 39.8 µM in [6]. Besides, the GI50 in [7] was 25.6 µM; in [8], 36.4 µM; in assay [9], 48.8 µM; in assay [10], over 100 µM. Also, the TGI in assay [1] is over 87.2 µM; in [2], 30.7 µM; in assay [3], 44 µM; in assay [4], over 84.6 µM; in assay [5] it was 32 µM; in assay [6], over 100 µM. The TGI in [7] was 67.8 µM; in assay [8] it was over 100 µM; in assay [9] it was over 100 µM; in assay [10] it was over 100 µM.

For the molecule `Cc1nc2ccc(NCCN(C)C)c3c(=O)c4cc(O)ccc4n1c23`, the TGI in assay [1] was found to be 2.3 µM; in assay [2], 1.39 µM; in [3], 3.94 µM; in [4], 13.4 µM; in assay [5], 9.46 µM; in [6], 2.37 µM. Further, the TGI in assay [7] amounted to 4.93 µM; in [8] it was 6.96 µM; in assay [9], 9.06 µM; in assay [10], 12.5 µM.

Take `Cn1cnc([N+](=O)[O-])c1Sc1nnc(C(F)(F)F)n1C`: the TGI in [1] is 28.8 µM; in assay [2], over 100 µM; in assay [3], over 100 µM; in assay [4] it was 48.5 µM; in assay [5] it was over 100 µM; in assay [6], 67.8 µM. In addition, the TGI in assay [7] is over 100 µM; in assay [8], 34.7 µM; in [9], 44 µM; in assay [10], 74.4 µM.

Consider `O=[N+]([O-])c1ccc(O)c2ncccc12`, for which the TGI in assay [1] was > 100 µM and 10.7 µM; in assay [2], > 100 µM and 11.4 µM; in assay [3] it was > 100 µM and 16.5 µM; in [4], 19.3 µM; in assay [5] it was > 100 µM and 13.8 µM; in assay [6], > 100 µM and 19.1 µM. In addition, the TGI in [7] was > 100 µM and 58.1 µM; in assay [8] it was 82.6 µM and 21.3 µM; in [9], 17.4 µM; in assay [10], > 100 µM and 30.3 µM. The GI50 was 4.06 µM in [4]; 19.1 µM and 4.22 µM in [8]; 3.55 µM in assay [9].

For `CC(C)[C@@H](CS(=O)(=O)C(C)C)N1C(=O)[C@@](C)(CC(=O)O)C[C@H](c2cccc(Cl)c2)[C@H]1c1ccc(Cl)cc1`, the GI50 in [1] was 14.7 µM; in [2], 0.388 µM; in assay [3] it was 0.378 µM; in assay [4] it was 17.6 µM; in assay [5], 8.61 µM; in assay [6] it was 13.5 µM. For the same molecule, the GI50 in assay [7] was 19.8 µM; in [8], 12.9 µM; in assay [9] it was 0.178 µM; in assay [10], 28.2 µM. Also, the TGI is 34.4 µM in assay [1]; 15.1 µM in assay [2]; 32.8 µM in assay [3]; 42.1 µM in [4]; over 85.1 µM in assay [5]; over 100 µM in [6]. The TGI in assay [7] was over 70.5 µM; in assay [8], 36.3 µM; in [9], 6.91 µM; in assay [10], 97 µM.

For `Cc1ccc(-n2c(-c3ccc(Cl)cc3)cs/c2=N\NC(=O)COc2n[nH]c(=O)c3ccccc23)cc1`, the GI50 was over 100 µM in assay [1]; over 100 µM in assay [2]; 25.7 µM in assay [3]; over 100 µM in [4]; over 100 µM in assay [5]; 16.6 µM in assay [6]. The GI50 in assay [7] is 78.1 µM; in assay [8], 34.6 µM; in assay [9], 31.9 µM; in assay [10] it was 52.7 µM. Also, the TGI in [1] was over 100 µM; in assay [2], over 100 µM; in assay [3], 72.7 µM; in [4] it was over 100 µM; in [5], over 100 µM; in [6] it was over 100 µM. Also, the TGI in assay [7], in assay [8], in [9] and in assay [10] was over 100 µM in each case.

Regarding `c1ccc2c(c1)ccc1c3ccccc3ccc21`, the GI50 in assay [1], in [2], in [3], in assay [4], in assay [5] and in assay [6] was over 50 µM each time. Further, the GI50 in assay [7], in assay [8], in assay [9] and in assay [10] was over 50 µM each time. Also, the TGI in assay [1], in [2], in assay [3], in assay [4], in assay [5] and in [6] was over 50 µM in each case. Also, the TGI in assay [7], in [8], in assay [9] and in [10] was over 50 µM throughout.

Regarding `Oc1ccc(SCc2ccc(NCc3ccccc3)cc2)cc1`, the TGI in assay [1] was over 100 µM; in assay [2], over 100 µM; in assay [3], over 100 µM; in assay [4], 61.1 µM; in assay [5] it was over 100 µM; in assay [6], over 100 µM. Moreover, the TGI in assay [7] is 64.6 µM; in [8], over 100 µM; in [9], over 100 µM; in assay [10], over 100 µM.

As for `COc1ccc(-c2nn(-c3cccc(NC(=O)Nc4cccc(C(F)(F)F)c4)c3)cc2-c2ccncc2)cc1Cl`, the GI50 in assay [1] was 1.69 µM; in assay [2] it was 1.76 µM; in [3], 1.77 µM; in assay [4], 2.37 µM; in assay [5] it was 3.73 µM; in assay [6] it was 1.7 µM. Besides, the GI50 in assay [7] is 2.4 µM; in assay [8], 0.229 µM; in assay [9], 2.07 µM; in assay [10] it was 4.1 µM. For the same molecule, the TGI was 3.69 µM in assay [1]; 11.5 µM in assay [2]; over 100 µM in assay [3]; 5.23 µM in assay [4]; over 100 µM in [5]; 10.4 µM in assay [6]. For the same molecule, the TGI was over 100 µM in assay [7], 3 µM in assay [8], 8.72 µM in [9] and over 100 µM in assay [10].
